Tests used:
Test in all cases: Kinome-wide inhibition profiling
Format in all cases: biochemical
AXL = target: T1, AXL (Homo sapiens, UniProt P30530)
T1 construct: purchased Reaction Biology Corp
Protocol: (§1) In vitro CDK12/cyclinK assays for all compounds and in vitro kinome-wide inhibition profiling of 30d at 10 μM were performed by a CRO company (Reaction Biology Corp., San Diego, CA, USA).

BMPR1B = target: T2, BMPR1B (Homo sapiens, UniProt O00238)
T2 construct: purchased Reaction Biology Corp
Protocol: as §1

CAMK1b = target: T3, CAMK1b (Homo sapiens, UniProt Q6P2M8)
T3 construct: purchased Reaction Biology Corp
Protocol: as §1

CAMK2a = target: T4, CAMK2a (Homo sapiens, UniProt Q9UQM7)
T4 construct: purchased Reaction Biology Corp
Protocol: as §1

CDK16 = target: T5, CDK16 (Homo sapiens, UniProt Q00536)
T5 construct: purchased Reaction Biology Corp
Protocol: as §1

CSNK1G1 = target: T6, CSNK1G1 (Homo sapiens, UniProt Q9HCP0)
T6 construct: purchased Reaction Biology Corp
Protocol: as §1

CTK = target: T7, CTK (Homo sapiens, UniProt P42679)
T7 construct: purchased Reaction Biology Corp
Protocol: as §1

DCAMKL1 = target: T8, DCAMKL1 (Homo sapiens, UniProt O15075)
T8 construct: purchased Reaction Biology Corp
Protocol: as §1

DCAMKL2 = target: T9, DCAMKL2 (Homo sapiens, UniProt Q8N568)
T9 construct: purchased Reaction Biology Corp
Protocol: as §1

DMPK2 = target: T10, DMPK2 (Homo sapiens, UniProt Q6DT37)
T10 construct: purchased Reaction Biology Corp
Protocol: as §1

EPHA1 = target: T11, EPHA1 (Homo sapiens, UniProt P21709)
T11 construct: purchased Reaction Biology Corp
Protocol: as §1

EPHA3 = target: T12, EPHA3 (Homo sapiens, UniProt P29320)
T12 construct: purchased Reaction Biology Corp
Protocol: as §1

EPHB3 = target: T13, EPHB3 (Homo sapiens, UniProt P54753)
T13 construct: purchased Reaction Biology Corp
Protocol: as §1

ERBB2 = target: T14, ERBB2 (Homo sapiens, UniProt P04626)
T14 construct: purchased Reaction Biology Corp
Protocol: as §1

ERK2 = target: T15, ERK2 (Homo sapiens, UniProt P28482)
T15 construct: purchased Reaction Biology Corp
Protocol: as §1

ERN2 = target: T16, ERN2 (Homo sapiens, UniProt Q76MJ5)
T16 construct: purchased Reaction Biology Corp
Protocol: as §1

FER = target: T17, FER (Homo sapiens, UniProt P16591)
T17 construct: purchased Reaction Biology Corp
Protocol: as §1

FGFR1 = target: T18, FGFR1 (Homo sapiens, UniProt P11362)
T18 construct: purchased Reaction Biology Corp
Protocol: as §1

FGFR2 = target: T19, FGFR2 (Homo sapiens, UniProt P21802)
T19 construct: purchased Reaction Biology Corp
Protocol: as §1

HIPK3 = target: T20, HIPK3 (Homo sapiens, UniProt Q9H422)
T20 construct: purchased Reaction Biology Corp
Protocol: as §1

IGF1R = target: T21, IGF1R (Homo sapiens, UniProt P08069)
T21 construct: purchased Reaction Biology Corp
Protocol: as §1

IRAK1 = target: T22, IRAK1 (Homo sapiens, UniProt P51617)
T22 construct: purchased Reaction Biology Corp
Protocol: as §1

Kit = target: T23, Kit (Homo sapiens, UniProt P10721)
T23 construct: purchased Reaction Biology Corp
Protocol: as §1

LKB1 = target: T24, LKB1 (Homo sapiens, UniProt Q15831)
T24 construct: purchased Reaction Biology Corp
Protocol: as §1

MAK = target: T25, MAK (Homo sapiens, UniProt P20794)
T25 construct: purchased Reaction Biology Corp
Protocol: as §1

MARK4 = target: T26, MARK4 (Homo sapiens, UniProt Q96L34)
T26 construct: purchased Reaction Biology Corp
Protocol: as §1

MST4 = target: T27, MST4 (Homo sapiens, UniProt Q9P289)
T27 construct: purchased Reaction Biology Corp
Protocol: as §1

PAK1 = target: T28, PAK1 (Homo sapiens, UniProt Q13153)
T28 construct: purchased Reaction Biology Corp
Protocol: as §1

PAK5 = target: T29, PAK5 (Homo sapiens, UniProt Q9P286)
T29 construct: purchased Reaction Biology Corp
Protocol: as §1

PDGFRa = target: T30, PDGFRa (Homo sapiens, UniProt P16234)
T30 construct: purchased Reaction Biology Corp
Protocol: as §1

PIM2 = target: T31, PIM2 (Homo sapiens, UniProt Q9P1W9)
T31 construct: purchased Reaction Biology Corp
Protocol: as §1

PLK1 = target: T32, PLK1 (Homo sapiens, UniProt P53350)
T32 construct: purchased Reaction Biology Corp
Protocol: as §1

PLK3 = target: T33, PLK3 (Homo sapiens, UniProt Q9H4B4)
T33 construct: purchased Reaction Biology Corp
Protocol: as §1

PRKCE = target: T34, PRKCE (Homo sapiens, UniProt Q02156)
T34 construct: purchased Reaction Biology Corp
Protocol: as §1

PRKCQ = target: T35, PRKCQ (Homo sapiens, UniProt Q04759)
T35 construct: purchased Reaction Biology Corp
Protocol: as §1

RIPK4 = target: T36, RIPK4 (Homo sapiens, UniProt P57078)
T36 construct: purchased Reaction Biology Corp
Protocol: as §1

ROCK1 = target: T37, ROCK1 (Homo sapiens, UniProt Q13464)
T37 construct: purchased Reaction Biology Corp
Protocol: as §1

RSK4 = target: T38, RSK4 (Homo sapiens, UniProt Q9UK32)
T38 construct: purchased Reaction Biology Corp
Protocol: as §1

S6K1 = target: T39, S6K1 (Homo sapiens, UniProt P23443)
T39 construct: purchased Reaction Biology Corp
Protocol: as §1

TESK2 = target: T40, TESK2 (Homo sapiens, UniProt Q96S53)
T40 construct: purchased Reaction Biology Corp
Protocol: as §1

TXK = target: T41, TXK (Homo sapiens, UniProt P42681)
T41 construct: purchased Reaction Biology Corp
Protocol: as §1

ULK3 = target: T42, ULK3 (Homo sapiens, UniProt Q6PHR2)
T42 construct: purchased Reaction Biology Corp
Protocol: as §1

YSK1 = target: T43, YSK1 (Homo sapiens, UniProt O00506)
T43 construct: purchased Reaction Biology Corp
Protocol: as §1

T25 sequence (P20794 whole entry): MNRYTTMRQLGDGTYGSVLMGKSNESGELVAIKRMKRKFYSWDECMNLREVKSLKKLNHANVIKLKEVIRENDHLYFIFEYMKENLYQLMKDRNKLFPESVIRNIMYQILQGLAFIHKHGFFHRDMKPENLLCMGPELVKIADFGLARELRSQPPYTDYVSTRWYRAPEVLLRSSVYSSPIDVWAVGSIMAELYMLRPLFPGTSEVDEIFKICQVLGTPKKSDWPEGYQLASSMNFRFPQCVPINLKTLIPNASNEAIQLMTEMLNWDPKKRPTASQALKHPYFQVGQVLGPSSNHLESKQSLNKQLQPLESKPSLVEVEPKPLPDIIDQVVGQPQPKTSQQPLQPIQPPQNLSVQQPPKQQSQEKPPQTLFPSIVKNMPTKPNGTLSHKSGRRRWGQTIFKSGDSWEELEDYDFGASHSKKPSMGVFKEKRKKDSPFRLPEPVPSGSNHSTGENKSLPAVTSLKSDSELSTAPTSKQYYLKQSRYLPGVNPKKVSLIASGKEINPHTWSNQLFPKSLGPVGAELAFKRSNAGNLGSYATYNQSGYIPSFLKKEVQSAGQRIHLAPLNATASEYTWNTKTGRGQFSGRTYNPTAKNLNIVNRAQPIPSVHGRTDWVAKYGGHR
T24 sequence (Q15831 whole entry): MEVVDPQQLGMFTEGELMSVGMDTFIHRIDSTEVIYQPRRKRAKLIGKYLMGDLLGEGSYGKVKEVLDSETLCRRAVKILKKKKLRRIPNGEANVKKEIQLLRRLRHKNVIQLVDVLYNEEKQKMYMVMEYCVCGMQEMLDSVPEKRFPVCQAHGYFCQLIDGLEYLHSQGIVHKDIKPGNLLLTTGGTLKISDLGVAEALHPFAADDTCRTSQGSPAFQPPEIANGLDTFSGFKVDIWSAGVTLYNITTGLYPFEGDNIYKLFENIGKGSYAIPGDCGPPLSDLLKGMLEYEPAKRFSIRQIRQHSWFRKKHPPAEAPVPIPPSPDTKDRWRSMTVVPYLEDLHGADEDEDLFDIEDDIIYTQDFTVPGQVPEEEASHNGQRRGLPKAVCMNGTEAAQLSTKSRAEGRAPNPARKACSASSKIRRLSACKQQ
T24 sequence (Q7RTN6 whole entry partner): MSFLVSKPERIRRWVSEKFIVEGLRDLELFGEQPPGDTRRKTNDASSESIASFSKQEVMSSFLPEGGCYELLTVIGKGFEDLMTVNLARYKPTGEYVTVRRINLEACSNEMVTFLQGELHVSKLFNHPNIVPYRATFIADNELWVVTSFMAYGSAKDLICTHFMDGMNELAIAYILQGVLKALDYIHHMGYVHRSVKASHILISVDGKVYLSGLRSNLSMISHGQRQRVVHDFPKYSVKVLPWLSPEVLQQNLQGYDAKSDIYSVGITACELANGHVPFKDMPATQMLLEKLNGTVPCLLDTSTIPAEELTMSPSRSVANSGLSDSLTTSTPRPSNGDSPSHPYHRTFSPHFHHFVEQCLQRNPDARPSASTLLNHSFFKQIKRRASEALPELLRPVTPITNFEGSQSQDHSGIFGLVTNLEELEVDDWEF
T24 sequence (Q9Y376 whole entry partner): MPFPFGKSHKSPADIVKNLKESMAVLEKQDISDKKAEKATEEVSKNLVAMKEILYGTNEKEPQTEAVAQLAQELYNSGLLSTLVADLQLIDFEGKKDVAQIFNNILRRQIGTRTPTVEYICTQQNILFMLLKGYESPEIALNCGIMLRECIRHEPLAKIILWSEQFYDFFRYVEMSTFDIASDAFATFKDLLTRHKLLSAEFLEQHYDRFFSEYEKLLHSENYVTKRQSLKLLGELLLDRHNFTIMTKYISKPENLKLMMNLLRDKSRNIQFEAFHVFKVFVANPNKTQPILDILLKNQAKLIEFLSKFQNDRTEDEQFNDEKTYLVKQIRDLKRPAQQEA
T6 sequence (Q9HCP0 whole entry): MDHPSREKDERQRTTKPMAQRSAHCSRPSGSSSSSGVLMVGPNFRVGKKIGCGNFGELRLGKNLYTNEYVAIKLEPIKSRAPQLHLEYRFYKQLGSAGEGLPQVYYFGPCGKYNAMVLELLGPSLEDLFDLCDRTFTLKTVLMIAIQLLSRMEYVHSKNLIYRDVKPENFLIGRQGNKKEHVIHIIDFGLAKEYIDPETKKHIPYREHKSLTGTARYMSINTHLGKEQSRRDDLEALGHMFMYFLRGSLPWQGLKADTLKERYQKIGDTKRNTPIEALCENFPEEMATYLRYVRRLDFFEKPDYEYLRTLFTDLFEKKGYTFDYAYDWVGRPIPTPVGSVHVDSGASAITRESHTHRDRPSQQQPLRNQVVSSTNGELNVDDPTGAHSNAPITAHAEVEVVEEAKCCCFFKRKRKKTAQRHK
T32 sequence (P53350 whole entry): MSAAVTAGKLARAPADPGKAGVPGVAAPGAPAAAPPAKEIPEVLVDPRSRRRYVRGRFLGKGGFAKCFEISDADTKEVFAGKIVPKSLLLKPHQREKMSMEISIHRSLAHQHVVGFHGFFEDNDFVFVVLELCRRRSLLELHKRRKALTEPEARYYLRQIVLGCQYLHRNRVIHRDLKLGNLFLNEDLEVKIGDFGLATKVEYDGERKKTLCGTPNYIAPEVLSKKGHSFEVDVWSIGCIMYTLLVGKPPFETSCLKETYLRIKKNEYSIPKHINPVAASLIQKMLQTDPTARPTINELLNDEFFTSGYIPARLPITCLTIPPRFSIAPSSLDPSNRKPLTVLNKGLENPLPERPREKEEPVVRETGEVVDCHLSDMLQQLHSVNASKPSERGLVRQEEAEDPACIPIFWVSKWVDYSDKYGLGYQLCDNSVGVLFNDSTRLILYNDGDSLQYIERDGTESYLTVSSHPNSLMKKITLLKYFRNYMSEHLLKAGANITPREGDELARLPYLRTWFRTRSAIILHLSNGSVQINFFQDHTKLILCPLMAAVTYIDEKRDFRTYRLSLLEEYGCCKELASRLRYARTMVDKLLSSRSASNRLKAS
T23 sequence (P10721 26-976): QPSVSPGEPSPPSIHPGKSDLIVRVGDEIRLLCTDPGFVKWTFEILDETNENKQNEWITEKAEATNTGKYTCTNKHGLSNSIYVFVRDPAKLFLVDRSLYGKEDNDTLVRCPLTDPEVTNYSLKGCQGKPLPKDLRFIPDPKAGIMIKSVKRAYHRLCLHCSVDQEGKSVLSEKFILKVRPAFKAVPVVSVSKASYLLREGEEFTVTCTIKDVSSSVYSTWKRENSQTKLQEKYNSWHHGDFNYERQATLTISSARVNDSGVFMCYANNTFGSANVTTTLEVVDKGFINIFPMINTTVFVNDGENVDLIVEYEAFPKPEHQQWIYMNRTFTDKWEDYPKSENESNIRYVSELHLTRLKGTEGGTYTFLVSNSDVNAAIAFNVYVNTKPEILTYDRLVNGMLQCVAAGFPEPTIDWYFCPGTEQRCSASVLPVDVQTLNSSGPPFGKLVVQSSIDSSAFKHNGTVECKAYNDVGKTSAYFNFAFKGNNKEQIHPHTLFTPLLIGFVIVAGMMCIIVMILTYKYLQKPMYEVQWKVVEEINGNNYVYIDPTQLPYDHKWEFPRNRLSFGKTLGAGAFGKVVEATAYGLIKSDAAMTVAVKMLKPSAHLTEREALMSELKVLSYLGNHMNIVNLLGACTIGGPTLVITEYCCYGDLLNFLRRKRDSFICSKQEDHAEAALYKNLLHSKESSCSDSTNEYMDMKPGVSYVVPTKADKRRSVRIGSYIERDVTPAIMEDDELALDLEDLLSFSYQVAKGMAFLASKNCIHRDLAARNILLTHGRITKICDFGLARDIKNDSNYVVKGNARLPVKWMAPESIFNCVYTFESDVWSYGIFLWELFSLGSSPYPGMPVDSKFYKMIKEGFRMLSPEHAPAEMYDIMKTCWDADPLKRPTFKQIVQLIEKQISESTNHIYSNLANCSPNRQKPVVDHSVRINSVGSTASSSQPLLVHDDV
T11 sequence (P21709 26-976): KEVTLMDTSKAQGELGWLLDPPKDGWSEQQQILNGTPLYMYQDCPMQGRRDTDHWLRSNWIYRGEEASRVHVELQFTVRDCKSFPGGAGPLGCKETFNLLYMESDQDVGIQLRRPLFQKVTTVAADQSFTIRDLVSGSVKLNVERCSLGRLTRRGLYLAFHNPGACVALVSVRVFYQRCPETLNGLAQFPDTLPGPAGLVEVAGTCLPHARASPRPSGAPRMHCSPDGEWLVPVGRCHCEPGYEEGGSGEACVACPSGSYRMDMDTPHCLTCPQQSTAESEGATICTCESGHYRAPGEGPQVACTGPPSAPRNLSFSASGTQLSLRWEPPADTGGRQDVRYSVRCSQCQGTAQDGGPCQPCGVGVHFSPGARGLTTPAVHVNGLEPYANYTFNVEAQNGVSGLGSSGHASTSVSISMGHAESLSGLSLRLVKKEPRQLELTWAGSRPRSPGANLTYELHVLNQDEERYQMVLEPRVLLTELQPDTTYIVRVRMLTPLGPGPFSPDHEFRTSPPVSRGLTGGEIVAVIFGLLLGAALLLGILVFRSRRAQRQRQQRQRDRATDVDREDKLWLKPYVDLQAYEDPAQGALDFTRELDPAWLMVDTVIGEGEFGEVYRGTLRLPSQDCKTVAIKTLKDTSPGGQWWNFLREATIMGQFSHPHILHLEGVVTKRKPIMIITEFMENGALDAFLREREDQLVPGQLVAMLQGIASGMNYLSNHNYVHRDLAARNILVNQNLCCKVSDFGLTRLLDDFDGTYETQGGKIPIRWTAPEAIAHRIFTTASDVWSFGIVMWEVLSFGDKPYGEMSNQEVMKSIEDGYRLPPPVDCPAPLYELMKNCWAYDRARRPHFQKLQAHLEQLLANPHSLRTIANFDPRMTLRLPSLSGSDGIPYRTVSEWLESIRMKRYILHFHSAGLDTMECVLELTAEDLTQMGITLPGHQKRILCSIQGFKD

Q: Which remaining activity at 10 µM (AXL) does the source give for `CCn1cnc2c(NCc3ccc(-c4ccccn4)nc3)nc(-c3ccc(N)nc3)nc21` [Compound 30d, N-([2,2′-Bipyridin]-5-ylmethyl)-2-(6-aminopyridin-3-yl)-9-ethyl-9H-purin-6-amine] here?
A: The remaining activity at 10 µM was 44.2%.

Q: And the remaining activity at 10 µM (BMPR1B)?
A: The remaining activity at 10 µM was 115%.

Q: And the remaining activity at 10 µM (CAMK1b)?
A: Its remaining activity at 10 µM is 66.8%.

Q: And the remaining activity at 10 µM (CAMK2a)?
A: Its remaining activity at 10 µM is 64%.

Q: And the remaining activity at 10 µM (CDK16)?
A: Its remaining activity at 10 µM is 17.5%.

Q: What about the remaining activity at 10 µM (CSNK1G1) of the same compound?
A: The remaining activity at 10 µM was 29.8%.

Q: What about the remaining activity at 10 µM (CTK) of the same compound?
A: Its remaining activity at 10 µM is 87.6%.

Q: What about the remaining activity at 10 µM (DCAMKL1) of the same compound?
A: Its remaining activity at 10 µM is 72.6%.

Q: And the remaining activity at 10 µM (DCAMKL2)?
A: The remaining activity at 10 µM was 55%.

Q: And the remaining activity at 10 µM (DMPK2)?
A: The remaining activity at 10 µM was 92.4%.

Q: And the remaining activity at 10 µM (EPHA1)?
A: The remaining activity at 10 µM was 13.2%.

Q: What about the remaining activity at 10 µM (EPHA3) of the same compound?
A: The remaining activity at 10 µM was 7.8%.

Q: And the remaining activity at 10 µM (EPHB3)?
A: Its remaining activity at 10 µM is 66%.

Q: What about the remaining activity at 10 µM (ERBB2) of the same compound?
A: Its remaining activity at 10 µM is 74.2%.

Q: And the remaining activity at 10 µM (ERK2)?
A: Its remaining activity at 10 µM is 10.6%.

Q: And the remaining activity at 10 µM (ERN2)?
A: The remaining activity at 10 µM was 65.4%.

Q: And the remaining activity at 10 µM (FER)?
A: Its remaining activity at 10 µM is 52.3%.

Q: What about the remaining activity at 10 µM (FGFR1) of the same compound?
A: The remaining activity at 10 µM was 28.8%.

Q: And the remaining activity at 10 µM (FGFR2)?
A: Its remaining activity at 10 µM is 33.7%.

Q: And the remaining activity at 10 µM (HIPK3)?
A: Its remaining activity at 10 µM is 94.1%.

Q: What about the remaining activity at 10 µM (IGF1R) of the same compound?
A: The remaining activity at 10 µM was 58%.

Q: And the remaining activity at 10 µM (IRAK1)?
A: The remaining activity at 10 µM was 79%.

Q: And the remaining activity at 10 µM (Kit)?
A: Its remaining activity at 10 µM is 14.2%.

Q: What about the inhibition at 10 µM (LKB1) of the same compound?
A: The inhibition at 10 µM was over 95%.

Q: What about the remaining activity at 10 µM (LKB1) of the same compound?
A: The remaining activity at 10 µM was 0.1%.

Q: What about the inhibition at 10 µM (MAK) of the same compound?
A: Its inhibition at 10 µM is over 95%.

Q: What about the remaining activity at 10 µM (MAK) of the same compound?
A: The remaining activity at 10 µM was 3.3%.

Q: And the remaining activity at 10 µM (MARK4)?
A: The remaining activity at 10 µM was 66.9%.

Q: What about the remaining activity at 10 µM (MST4) of the same compound?
A: Its remaining activity at 10 µM is 45.8%.

Q: What about the remaining activity at 10 µM (PAK1) of the same compound?
A: Its remaining activity at 10 µM is 24.5%.

Q: And the remaining activity at 10 µM (PAK5)?
A: The remaining activity at 10 µM was 7.6%.

Q: What about the remaining activity at 10 µM (PDGFRa) of the same compound?
A: Its remaining activity at 10 µM is 52.8%.

Q: And the remaining activity at 10 µM (PIM2)?
A: Its remaining activity at 10 µM is 93.8%.

Q: And the remaining activity at 10 µM (PLK1)?
A: Its remaining activity at 10 µM is 68.3%.

Q: And the remaining activity at 10 µM (PLK3)?
A: Its remaining activity at 10 µM is 94.4%.

Q: What about the remaining activity at 10 µM (PRKCE) of the same compound?
A: The remaining activity at 10 µM was 94.1%.

Q: And the remaining activity at 10 µM (PRKCQ)?
A: The remaining activity at 10 µM was 79.8%.

Q: And the remaining activity at 10 µM (RIPK4)?
A: Its remaining activity at 10 µM is 97.8%.

Q: And the remaining activity at 10 µM (ROCK1)?
A: The remaining activity at 10 µM was 97.2%.

Q: What about the remaining activity at 10 µM (RSK4) of the same compound?
A: Its remaining activity at 10 µM is 54.2%.

Q: What about the remaining activity at 10 µM (S6K1) of the same compound?
A: Its remaining activity at 10 µM is 92.1%.

Q: And the remaining activity at 10 µM (TESK2)?
A: Its remaining activity at 10 µM is 83.7%.

Q: And the remaining activity at 10 µM (TXK)?
A: The remaining activity at 10 µM was 34.9%.

Q: And the remaining activity at 10 µM (ULK3)?
A: The remaining activity at 10 µM was 91.8%.

Q: What about the remaining activity at 10 µM (YSK1) of the same compound?
A: Its remaining activity at 10 µM is 23.1%.

From paper PMC9506414, “Novel 2,6,9-Trisubstituted Purines as Potent CDK Inhibitors Alleviating Trastuzumab-Resistance of HER2-Positive Breast Cancers” (Pharmaceuticals, 2022)
